From PubChem BioAssay AID256 (DTP/NCI, 2004)
“And” between values parts separate entries of the source, which are not always exact repeats. Equal entries are not always repeated. Toxic doses and inconclusive results are not listed. How the source made its calls: active means survival T/C of 150% or more; inactive means T/C below 125% in these data.

Test system: CD2F1 mice, L1210 leukemia ip, survival T/C
Test: NCI In Vivo Anticancer Drug Screen. Data for tumor model L1210 Leukemia (intraperitoneal) in CD2F1 (CDF1) mice
Conditions: endpoint: mean survival time, higher = longer survival
Method in brief: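 Vehicle-treated tumor-bearing mice served as controls (C) for compound-treated mice (T). Reported figure is T divided by C.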

[1] = dose: 100.0 mg/kg/injection, schedule: Q01DX001 (ip), vehicle: Klucel (hydroxypropylcellulose) (HPC)
[2] = dose: 100.0 mg/kg/injection, schedule: Q01DX009 (ip), vehicle: saline with Tween-80
[3] = dose: 100.0 mg/kg/injection, schedule: Q04DX003 (ip), vehicle: saline with Tween-80
[4] = dose: 200.0 mg/kg/injection, schedule: Q01DX009 (ip), vehicle: saline with Tween-80
[5] = dose: 200.0 mg/kg/injection, schedule: Q04DX003 (ip), vehicle: saline with Tween-80
[6] = dose: 400.0 mg/kg/injection, schedule: Q01DX009 (ip), vehicle: saline with Tween-80
[7] = dose: 400.0 mg/kg/injection, schedule: Q04DX003 (ip), vehicle: saline with Tween-80
[8] = dose: 75.0 mg/kg/injection, schedule: Q04DX002 (ip), vehicle: saline with Tween-80
[9] = dose: 50.0 mg/kg/injection, schedule: Q01DX009 (ip), vehicle: Klucel (hydroxypropylcellulose) (HPC)

Measured: T/C

CC(=O)/C=C\c1cc(C)ccc1O
inactive: [1] 95 % of control | dose: 200.0 mg/kg/injection, schedule: Q01DX001 (ip), vehicle: Klucel (hydroxypropylcellulose) (HPC) 103 % of control | dose: 400.0 mg/kg/injection, schedule: Q01DX001 (ip), vehicle: Klucel (hydroxypropylcellulose) (HPC) 100 % of control

COc1ccc(C(N)=O)cc1N=NN(C)C
active: dose: 37.5 mg/kg/injection, schedule: Q01DX009 (ip), vehicle: Klucel (hydroxypropylcellulose) (HPC) 158 % of control
inactive: dose: 75.0 mg/kg/injection, schedule: Q01DX009 (ip), vehicle: Klucel (hydroxypropylcellulose) (HPC) 109 % of control

O=C1c2ccccc2C(=O)c2c1cccc2N1CCOCC1
inactive: dose: 25.0 mg/kg/injection, schedule: Q04DX002 (ip), vehicle: Klucel (hydroxypropylcellulose) (HPC) 96 % of control | dose: 50.0 mg/kg/injection, schedule: Q04DX002 (ip), vehicle: Klucel (hydroxypropylcellulose) (HPC) 102 % of control | dose: 100.0 mg/kg/injection, schedule: Q04DX002 (ip), vehicle: Klucel (hydroxypropylcellulose) (HPC) 102 % of control | dose: 200.0 mg/kg/injection, schedule: Q04DX002 (ip), vehicle: Klucel (hydroxypropylcellulose) (HPC) 96 % of control

CN(C)N=Nc1cccc(C(N)=O)c1
inactive: dose: 5.0 mg/kg/injection, schedule: Q01DX009 (ip), vehicle: Klucel (hydroxypropylcellulose) (HPC) 112 % of control | dose: 10.0 mg/kg/injection, schedule: Q01DX009 (ip), vehicle: Klucel (hydroxypropylcellulose) (HPC) 113 % of control | dose: 20.0 mg/kg/injection, schedule: Q01DX009 (ip), vehicle: Klucel (hydroxypropylcellulose) (HPC) 117 % of control | dose: 80.0 mg/kg/injection, schedule: Q01DX009 (ip), vehicle: Klucel (hydroxypropylcellulose) (HPC) 113 % of control | dose: 108.0 mg/kg/injection, schedule: Q01DX009 (ip), vehicle: Klucel (hydroxypropylcellulose) (HPC) 93 % of control

S=c1sc2ccccc2n1CN1CCCCC1
inactive: dose: 100.0 mg/kg/injection, schedule: Q01DX001 (ip), vehicle: saline with Tween-80 100 % of control | dose: 200.0 mg/kg/injection, schedule: Q01DX001 (ip), vehicle: saline with Tween-80 100 % of control | dose: 400.0 mg/kg/injection, schedule: Q01DX001 (ip), vehicle: saline with Tween-80 108 % of control

O=S(=O)(F)c1ccc2nc(-c3cccc(Sc4ccccc4)c3)cc(Cl)c2c1
inactive: [2] 97 % of control | [3] 97 % of control | [4] 93 % of control | [5] 90 % of control | [6] 97 % of control | [7] 96 % of control

Cc1ccc(Sc2ccc([N+](=O)[O-])cc2)cc1
inactive: [2] 96 % of control | [3] 100 % of control | [4] 102 % of control | [5] 100 % of control | [6] 96 % of control | [7] 91 % of control

c1ccc(C2=Nc3ccccc3C(c3ccccc3)=Nc3ccccc32)cc1
inactive: [3] 109 % of control | [5] 91 % of control | [7] 101 % of control

O=[N+]([O-])c1ccc2ccccc2c1I
inactive: [2] 92 % of control | [3] 87 % of control | [4] 98 % of control | [5] 93 % of control | [6] 90 % of control | [7] 92 % of control

ClCC[N+]12CC[N+](CCCl)(CC1)C2
active: dose: 66.0 mg/kg/injection, schedule: Q01DX009 (ip), vehicle: saline 154 % of control | dose: 150.0 mg/kg/injection, schedule: Q01DX009 (ip), vehicle: saline 190 % of control | dose: 400.0 mg/kg/injection, schedule: Q04DX003 (ip), vehicle: saline 178 % of control
inactive: dose: 6.25 mg/kg/injection, schedule: Q01DX009 (ip), vehicle: water 95 % of control and 106 % of control and 109 % of control | dose: 12.5 mg/kg/injection, schedule: Q01DX009 (ip), vehicle: saline 106 % of control [middle of 4 runs] | dose: 12.5 mg/kg/injection, schedule: Q01DX009 (ip), vehicle: water 117 % of control and 104 % of control and 108 % of control | dose: 25.0 mg/kg/injection, schedule: Q01DX009 (ip), vehicle: saline 110 % of control [middle of 4 runs] | dose: 25.0 mg/kg/injection, schedule: Q01DX009 (ip), vehicle: water 115 % of control and 106 % of control and 109 % of control | dose: 50.0 mg/kg/injection, schedule: Q01DX009 (ip), vehicle: saline 117 % of control and 102 % of control and 109 % of control | dose: 50.0 mg/kg/injection, schedule: Q01DX009 (ip), vehicle: water 113 % of control and 119 % of control and 120 % of control | dose: 50.0 mg/kg/injection, schedule: Q04DX003 (ip), vehicle: saline 102 % of control | dose: 100.0 mg/kg/injection, schedule: Q01DX009 (ip), vehicle: saline 116 % of control and 94 % of control | dose: 100.0 mg/kg/injection, schedule: Q01DX009 (ip), vehicle: water 111 % of control | dose: 100.0 mg/kg/injection, schedule: Q04DX003 (ip), vehicle: saline 102 % of control | dose: 150.0 mg/kg/injection, schedule: Q04DX003 (ip), vehicle: saline 118 % of control | dose: 200.0 mg/kg/injection, schedule: Q01DX009 (ip), vehicle: saline 108 % of control [middle of 5 runs] | dose: 200.0 mg/kg/injection, schedule: Q04DX003 (ip), vehicle: saline 123 % of control | dose: 300.0 mg/kg/injection, schedule: Q04DX003 (ip), vehicle: saline 119 % of control | dose: 400.0 mg/kg/injection, schedule: Q01DX009 (ip), vehicle: saline 121 % of control and 105 % of control

CCCCCCCCCCCCCCCCCC(=O)Nc1ccn(C2OC(CO)C(O)C2O)c(=O)n1 (stereo not given)
inactive: dose: 200.0 mg/kg/injection, schedule: Q04DX002 (ip), vehicle: saline with Tween-80 122 % of control | dose: 400.0 mg/kg/injection, schedule: Q04DX002 (ip), vehicle: saline with Tween-80 110 % of control
active: dose: 25.0 mg/kg/injection, schedule: Q04DX002 (ip), vehicle: saline with Tween-80 229 % of control and 252 % of control | dose: 50.0 mg/kg/injection, schedule: Q04DX002 (ip), vehicle: saline with Tween-80 271 % of control and 325 % of control | [8] 365 % of control | dose: 100.0 mg/kg/injection, schedule: Q04DX002 (ip), vehicle: saline with Tween-80 273 % of control and 313 % of control

COc1cc2c(c(OC)c1OC)-c1ccc(SC)c(=O)cc1[C@@H](NC1OC(CO)C(O)C(O)C1O)CC2 (stereo not given in full)
inactive: dose: 3.13 mg/kg/injection, schedule: Q01DX009 (ip), vehicle: saline 117 % of control

O=[N+]([O-])c1ccc(/C=N\N=C\c2ccc([N+](=O)[O-])cc2)cc1
inactive: [9] 106 % of control | dose: 100.0 mg/kg/injection, schedule: Q01DX009 (ip), vehicle: Klucel (hydroxypropylcellulose) (HPC) 106 % of control | dose: 200.0 mg/kg/injection, schedule: Q01DX009 (ip), vehicle: Klucel (hydroxypropylcellulose) (HPC) 109 % of control

CN(C)/C=N/c1c(CO)c(-c2ccccc2)nn1-c1ccccc1
inactive: [3] 101 % of control | [5] 95 % of control | [7] 95 % of control

CCOC(=O)C(O)(C(=O)OCC)c1ccc(C)cc1
inactive: [2] 97 % of control | [3] 102 % of control | [4] 97 % of control | [5] 100 % of control | [6] 97 % of control | [7] 100 % of control

CC(C)C1C=CC(C)(/C=C/N2CCCC2)CC1 (stereo not given)
inactive: dose: 75.0 mg/kg/injection, schedule: Q01DX001 (ip), vehicle: other 98 % of control | dose: 150.0 mg/kg/injection, schedule: Q01DX001 (ip), vehicle: other 98 % of control | dose: 300.0 mg/kg/injection, schedule: Q01DX001 (ip), vehicle: other 102 % of control

Nc1ncnc2nc(SCc3ccccc3)[nH]c12
inactive: dose: 12.5 mg/kg/injection, schedule: Q01DX009 (ip), vehicle: Klucel (hydroxypropylcellulose) (HPC) 112 % of control | dose: 25.0 mg/kg/injection, schedule: Q01DX009 (ip), vehicle: Klucel (hydroxypropylcellulose) (HPC) 104 % of control | [9] 100 % of control | [1] 90 % of control

Cn1nc(NC=O)c(C#N)c1C#N
inactive: dose: 37.5 mg/kg/injection, schedule: Q04DX002 (ip), vehicle: saline with Tween-80 102 % of control | [8] 102 % of control | dose: 150.0 mg/kg/injection, schedule: Q04DX002 (ip), vehicle: saline with Tween-80 98 % of control

OC(c1nc2ccccc2[nH]1)C(O)c1nc2ccccc2[nH]1 (stereo not given)
inactive: [3] 101 % of control | [5] 102 % of control | [7] 96 % of control

CCOC(=O)/C(C#N)=C1/C=Cc2ccccc2N1
inactive: [2] 102 % of control | [3] 109 % of control | [4] 96 % of control | [5] 97 % of control | [6] 96 % of control | [7] 97 % of control

CC(C)(C)C(Br)C(=O)O (stereo not given)
inactive: dose: 75.0 mg/kg/injection, schedule: Q01DX001 (ip), vehicle: saline with Tween-80 97 % of control | dose: 150.0 mg/kg/injection, schedule: Q01DX001 (ip), vehicle: saline with Tween-80 97 % of control

Cn1c(=O)cc(C(=O)NCCCN2CCOCC2)c2ccccc21
inactive: [3] 92 % of control | [5] 96 % of control | [7] 87 % of control
